# From US8258098B2, “Antitumoral treatments” (Pharma Mar, S.A., priority 2006, dated 2012)
# Legend:
# [1] = system: MRI-H187 melanoma tumor xenografts; experiment: Net tumor volume in tumor xenografts; format: in vivo, female athymic mice; settings: Aplidine 50 μg/kg, DTIC 40 mg/kg, Carboplatin 25 mg/kg, i.p.
# Source text: (§1) Athymic nude female mice were received from Harlan Sprague Dawley, Madison, Wis. at 4-5 weeks of age. Mice were acclimated to the laboratory for at least one week prior to implantation of tumor. Animals were housed in static cages with food and water allowed ad libitum. Experimental animals were implanted with either tumor fragments derived from transplantation established human tumors or with cells obtain directly from in vitro culture. Tumors were implanted subcutaneously on the right flank on Day 0.
# (§2) Tumor size measurements were recorded twice weekly beginning on day 4 or 5 using vernier calipers. The formula to calculate volume for a prolate ellipsoid was used to estimate tumor volume from 2-dimensional tumor measurements: tumor volume (mm^3)=(length×width^2)÷2. Assuming unit density, volume was converted to weight (i.e., 1 mm^3=1 mg). […] Treatments were initiated and administered on an individual body weight basis. A dose range finding study was performed on each tumor model to determine the appropriate dose level of each compound used in the combination studies.
# [2] = system: LOX-IMVI melanoma tumor xenografts; experiment: Net tumor volume in tumor xenografts; format: in vivo, female athymic mice; settings: DTIC 30 mg/kg, Carboplatin 25 mg/kg, i.p.
# Source text: as §1, §2
# UACC-257 cells = experiment: MTS assay Example 2, single agents and combinations; format: cell-based; settings: UACC-257, MTS; read-out: IC50 (Molar)
# Procedure: (§3) The day before plating cells all cultures were fed with fresh, complete growth media. On the harvest (plating) day cells were counted by Trypan Blue exclusion staining method.
# (§4) Cells were harvested and seeded in 96 well microtiter plates at 15,000 cells per well in 190 μl of media and incubated for 24 hours to allow the cells to attach before drug addition.
# (§5) The cytotoxic effect was measured by the MTS Assay (Tetrazolium), which is a colorimetric method for determining the number of viable cells.
# (§6) After 72 hours of incubation with tested agents 25 μl of MTS+PMS solution was added to each microtiter well and incubated for 4 hours at 37° C. Plates were then removed from incubator and placed on plate shaker for 5 minutes (covered with aluminum foil for protection from light). Optical densities were read at 490 nm on spectrophotometer plate reader. Data was analyzed as: • 1. Prism (Graphpad) software program was used to normalized the data to control values (100%=cell growth in the absence of agent (drug); 0%=blank control). • 2. Data normalized were plotted as scatter plots.
# (§7) Conversely, antagonism was concluded when inhibition was lower than both maxima. […] Statistical significance was assessed by performing a student's t-test on the inhibition at each dose ratio versus the inhibition at the maximum for each drug.
# (§8) As a visual aid, response values were plotted on a scatter plot with dose ratios given on the x-axis and % response values on the y-axis. […] In cases where response values at the two endpoints were approximately equivalent, points lying above or below this predicted line of additivity could be interpreted as representing antagonistic or synergistic drug interaction respectively.
# LOXIMVI cells = experiment: as above; format: cell-based; settings: read-out: IC50 (Molar)
# Procedure: as §3, §4, §5, §6, §7, §8
# [3] = system: UACC-257 human melanoma cells; experiment: Antitumor efficacy against subcutaneous-implanted melanoma xenograft; format: in vivo, female, athymic NCr-nu/nu mice; settings: UACC-257 xenograft, median tumor weight; Aplidine 60 μg/kg/dose IP q1d × 9, Carboplatin 50 mg/kg/dose IV q4d × 3
# Procedure: The animals were housed in microisolator cages, up to five per cage in a 12-hour light/dark cycle. Six-weeks-old female, athymic NCr-nu/nu mice were acclimated in the laboratories for one week prior to the experiment.
# Each mouse was inoculated subcutaneously near the right flank with UACC-257 human melanoma cells from an in vitro cell culture using a 23-gauge needle. Each mouse received 2×10^7 cells resuspended in 0.2 mL of Matrigel®. A vial with UACC-257 human melanoma frozen cells was thawed and cultured in RPMI 1640 medium containing low glucose (2,000 mg/L), sodium bicarbonate ([…]), 2 mM L-glutamine, and 10% fetal bovine serum (complete medium), and grown in a +37° C. incubator in a humidified atmosphere with 5% CO2 until the necessary number of cells for inoculation of mice was obtained. Cells were harvested after four passages in culture. […] The cell count and viability were determined with a Beckman Coulter VI CELL XR cell counter and viability analyzer. […]
# Animals were observed daily and clinical signed were noted. The s.c. tumors were measured and the animals were weighed twice weekly starting with the first day of treatment, Day 13. Tumor volume was determined by caliper measurements (mm) and using the formula for an ellipsoid sphere: L×W^2/2=mm^3, where L and W refer to the larger and smaller perpendicular dimensions collected at each measurement. […]
compound,measurement,setting,value
N.N.O=C([O-])C1(C(=O)[O-])CCC1.[Pt+2] [carboplatin],Net Tumor Volume ± S.E.M.,"[1]; MRI-H187, DAY 24",213 ± 32 mg
same,Net Tumor Volume ± S.E.M.,"[1]; MRI-H187, DAY 27",301 ± 50 mg
same,Net Tumor Volume ± S.E.M.,"[1]; MRI-H187, DAY 34",540 ± 99 mg
same,Net Tumor Volume ± S.E.M.,"[1]; MRI-H187, DAY 38",793 ± 132 mg
same,Net Tumor Volume ± S.E.M.,"[1]; MRI-H187, DAY 41",917 ± 138 mg
same,Net Tumor Volume ± S.E.M.,"[1]; MRI-H187, DAY 46",1303 ± 237 mg
same,Net Tumor Volume ± S.E.M.,"[1]; MRI-H187, DAY 52",1603 ± 288 mg
same,Net Tumor Volume ± S.E.M.,"[1]; MRI-H187, DAY 55",1989 ± 373 mg
same,Net Tumor Volume ± S.E.M.,"[1]; MRI-H187, DAY 59",2292 ± 487 mg
same,Net Tumor Volume ± S.E.M.,"[1]; MRI-H187, DAY 62",2659 ± 492 mg
same,Net Tumor Volume ± S.E.M.,"[1]; MRI-H187, DAY 66",2723 ± 519 mg
same,Net Tumor Volume ± S.E.M.,"[2]; DAY 6, Aplidine 50 μg/kg",107 ± 3 mg
same,Net Tumor Volume ± S.E.M.,"[2]; DAY 8, Aplidine 50 μg/kg",347 ± 43 mg
same,Net Tumor Volume ± S.E.M.,"[2]; DAY 12, Aplidine 50 μg/kg",1167 ± 117 mg
same,Net Tumor Volume ± S.E.M.,"[2]; DAY 14, Aplidine 50 μg/kg",2936 ± 543 mg
same,Net Tumor Volume ± S.E.M.,"[2]; DAY 19, Aplidine 50 μg/kg",4598 ± 1182 mg
same,IC50,UACC-257 cells,170 µM
same,IC50,LOXIMVI cells,120 µM
same,% T/C on day 23,[3],95%
same,% T/C on day 70,[3],60%
